Consider 4 compounds from PubChem BioAssay (NCI).

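Five concentrations, 48 hours, 96-well plates. Abbreviation: GI50, concentration required for 50% inhibition of growth. The concentration for full growth arrest is given as TGI.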

Some test systems named below: ACHN renal; CAKI-1 renal; DU-145 prostate; KM12 colon; M14 melanoma; MCF7 breast; NCI-H226 lung; RXF 393 renal; SW-620 colon; 786-0 renal; CCRF-CEM leukemia; COLO 205 colon; EKVX NSCLC; HCT-15 colon; HOP-92 NSCLC; HT29 colon; MDA-MB-435; MOLT-4 leukemia; NCI-H23 lung; PC-3 prostate; SF-295 CNS; SK-OV-3 ovarian; UACC-257 melanoma; A498 renal; HL-60(TB) leukemia; OVCAR-5 ovarian; A549 NSCLC; BT-549 breast; HCC-2998 colon; HOP-62 NSCLC; MDA-MB-231 breast; NCI-H460 lung; NCI/ADR-RES ovarian; OVCAR-3 ovarian; SF-268 CNS; SF-539 CNS; SK-MEL-2 melanoma; SK-MEL-28 melanoma; SN12C renal; SNB-19 CNS; SNB-75 CNS; TK-10 renal; UACC-62 melanoma.

Holding throughout (assay): DTP human tumour cell line panel, 48 h

As for `CC(C)(C)c1ccc2c(c1)CNCCNCCNCc1cc(C(C)(C)C)ccc1OCC1(CO2)COc2ccc(C(C)(C)C)cc2CNCCNCCNCc2cc(C(C)(C)C)ccc2OC1`, the TGI – broadly, the concentration giving total growth inhibition – in the experiment with ACHN renal was 2.83 µM; with CAKI-1 renal, 3.17 µM; with DU-145 prostate it was 2.83 µM; in the experiment on KM12 colon, 0.562 µM; in the experiment with M14 melanoma it was 1.83 µM; in the experiment on MCF7 breast, 0.379 µM. Also, the TGI in the experiment on NCI-H226 lung is 1.97 µM; in the experiment on RXF 393 renal, 3.74 µM; with SW-620 colon, 1.33 µM.

For `CCN(CC)Cc1cc(Nc2ccnc3cc(Cl)ccc23)cc(-c2ccc(Cl)cc2)c1O`, the GI50 (in general, the concentration at which growth is held to half of that of the control) in the experiment with 786-0 renal was 1.84 µM; in the experiment with CAKI-1 renal it was 0.907 µM; in the experiment on CCRF-CEM leukemia it was 0.999 µM; in the experiment with COLO 205 colon it was 3.05 µM; in the experiment with EKVX NSCLC, 0.879 µM; with HCT-15 colon, 0.577 µM. Besides, the GI50 was 0.434 µM with HOP-92 NSCLC; 1.88 µM in the experiment with HT29 colon; 3.08 µM in the experiment on KM12 colon; 0.989 µM with MDA-MB-435; 0.485 µM in the experiment on MOLT-4 leukemia; 0.704 µM in the experiment with NCI-H23 lung. Also, the GI50 was 0.771 µM in the experiment on PC-3 prostate; 1.39 µM in the experiment on SF-295 CNS; 3.89 µM in the experiment on SK-OV-3 ovarian; 0.628 µM in the experiment on SW-620 colon; 1.29 µM in the experiment on UACC-257 melanoma. The TGI with 786-0 renal, with CAKI-1 renal, in the experiment with CCRF-CEM leukemia, in the experiment with COLO 205 colon, in the experiment with EKVX NSCLC and in the experiment on HCT-15 colon was more than 100 µM each time. The concentration for total growth inhibition (TGI) in the experiment on HOP-92 NSCLC was 3.2 µM; in the experiment with HT29 colon, more than 100 µM; with KM12 colon it was more than 100 µM; with MDA-MB-435, more than 100 µM; with MOLT-4 leukemia, more than 100 µM; with NCI-H23 lung, more than 100 µM. Also, the TGI with PC-3 prostate was more than 100 µM; in the experiment on SF-295 CNS, more than 100 µM; in the experiment with SK-OV-3 ovarian, more than 100 µM; in the experiment with SW-620 colon, more than 100 µM; with UACC-257 melanoma, 4.85 µM.

Consider `COc1ccc2[nH]cc(/C=C3/C(=O)Nc4ccc(Cl)cc43)c2c1`, for which the GI50 was more than 100 µM in the experiment on A498 renal; 5.97 µM in the experiment on CCRF-CEM leukemia; more than 100 µM with HL-60(TB) leukemia; 0.352 µM with KM12 colon; more than 100 µM in the experiment on MOLT-4 leukemia; more than 100 µM in the experiment with OVCAR-5 ovarian. For the same compound, the TGI in the experiment with A498 renal, in the experiment with CCRF-CEM leukemia, in the experiment on HL-60(TB) leukemia, in the experiment with KM12 colon, with MOLT-4 leukemia and in the experiment on OVCAR-5 ovarian was more than 100 µM in each case.

As for `CN(C)CCCn1c(-c2cc(C(C)(C)C)c(O)c(C(C)(C)C)c2)csc1=Nc1ccccc1`, the concentration for total growth inhibition (TGI) came to 6.94 µM in the experiment with A498 renal; 3.46 µM in the experiment on A549 NSCLC; 9.14 µM in the experiment with ACHN renal; 7.8 µM in the experiment with BT-549 breast; 52.4 µM with CAKI-1 renal; 4.26 µM with EKVX NSCLC. Further, the TGI with HCC-2998 colon was determined as 3.65 µM; in the experiment with HCT-15 colon, 9.05 µM; in the experiment with HL-60(TB) leukemia it was 8.76 µM; in the experiment with HOP-62 NSCLC, 3.34 µM; in the experiment on KM12 colon, 3.6 µM; with M14 melanoma it was 3.84 µM. Also, the total growth inhibition concentration (TGI) in the experiment with MDA-MB-231 breast turned out to be 20.8 µM; with MDA-MB-435, 5 µM; in the experiment with MOLT-4 leukemia, 0.547 µM; with NCI-H226 lung, 3.59 µM; in the experiment on NCI-H23 lung, 3.73 µM; in the experiment with NCI-H460 lung, 6.58 µM. Also, the concentration for total growth inhibition (TGI) in the experiment on NCI/ADR-RES ovarian worked out at 3.45 µM; with OVCAR-3 ovarian, 3.04 µM; in the experiment with OVCAR-5 ovarian, 4.19 µM; in the experiment with PC-3 prostate, 3.58 µM; in the experiment with RXF 393 renal it was 4.01 µM; with SF-268 CNS it was 3.95 µM. Also, the TGI was found to be 3.26 µM in the experiment on SF-295 CNS; 3.38 µM in the experiment with SF-539 CNS; 8.51 µM in the experiment with SK-MEL-2 melanoma; 4.73 µM in the experiment with SK-MEL-28 melanoma; 3.94 µM in the experiment on SK-OV-3 ovarian; 6.15 µM with SN12C renal. Further, the TGI in the experiment with SNB-19 CNS was 4.52 µM; with SNB-75 CNS, 8.34 µM; in the experiment on SW-620 colon, more than 100 µM; in the experiment on TK-10 renal, 5.45 µM; in the experiment with UACC-257 melanoma it was 3.39 µM; with UACC-62 melanoma, 4.62 µM.
